Reference: EP4755880A1, “SUBSTITUTED NITROGEN-CONTAINING BICYCLIC COMPOUND AND USE THEREOF” (Sunshine Lake Pharma Co., Ltd., priority 2023, dated 2025)

Key:
DLD-1 BRCA2(-/-) cells = assay: Inhibition of proliferation of DLD-1 BRCA2(-/-) cells (CTG method); type: cell-based; settings: Homo sapiens, DLD-1, 168 h; 7 days incubation, CellTiter-Glo
Procedure: • 1. Cell Pretreatment: DLD-1 BRCA2(-/-) cells were cultured in growth medium 1640 + 10% FBS (fetal bovine serum) + 1% Penicillin-Streptomycin. Cells in the logarithmic growth phase were digested with trypsin-EDTA, centrifuged, and resuspended. DLD-1 BRCA2(-/-) cells were seeded at 1,000 cells/well in sterile 96-well opaque plates, 75 µl per well. After seeding, the cell culture plates were incubated overnight at 37 °C with 5% CO2 before adhesion, followed by treatment with the test compounds. • 2. DLD-1 BRCA2(-/-) Cell Drug Treatment: The test compound was prepared as a 10 mM stock solution using DMSO. The test compound was then diluted to a 4× working solution using growth medium (starting at 40 µM, with 9 4-fold dilutions). 25 µl of 4× working solution was added to each well to achieve final concentrations of 10000, 2500, 625, 156, 39, 9.7, 2.4, 0.61, and 0.152 nM, respectively. Blank control wells containing the same DMSO concentration were also included, with three replicates for each concentration. After adding the test compound, the cells were incubated at 37 °C with 5% CO2 for 7 days. • 3. After incubation, 100 µl of CellTiter-Glo® Reagent was added to each well, and […] intensity was measured. A curve was fitted using GraphPad software, and the IC50 value for cell proliferation inhibition was calculated.

MDA-MB-436 cells = assay: Inhibition of proliferation of MDA-MB-436 cells (CellTiter-Glo); type: cell-based; settings: Homo sapiens, MDA-MB-436, 168 h, 7 days incubation
Procedure: • 1. Cell Pretreatment: MDA-MB-436 cells were cultured in DMEM + 10% FBS + 1% penicillin-dip antibiotics + 1% ITS + 16 µg/ml glutathione. Cells in the logarithmic growth phase were digested with trypsin-EDTA, centrifuged and resuspended, and then seeded at a rate of 500-1000 cells/well in sterile 96-well opaque plates, 90 µl per well. After seeding, the cell culture plates were incubated overnight at 37°C with 5% CO2 before drug treatment. • 2. Drug treatment of MDA-MB-436 cells: The test compound was prepared as a 10 mM stock solution using DMSO. The drug was then diluted to a 10× working solution using growth medium (the compound was started at 100 µM and diluted 4-fold to achieve 9 concentrations). 10 µl of the 10× working solution was added to each well to achieve final drug concentrations of 10000, 2500, 625, 156, 39, 9.7, 2.4, 0.61, and 0.152 nM, respectively. Blank control wells containing the same DMSO concentration were also included, with three replicates for each concentration. After drug addition, the cells were incubated at 37°C with 5% CO2 for 7 days. • 3. After incubation, 100 µl of CellTiter-Glo® Reagent was added to each well, and luminescence was measured. The IC50 value of cell proliferation inhibition was calculated using GraphPad software to fit the curve. Table E: Results of the inhibitory effect of the compound of this invention on the proliferation of MDA-MB-436 cells.

PARP1 = PARP1 (Homo sapiens, UniProt P09874); assay: Inhibition of PARP1 enzyme activity (ELISA, chemiluminescence); type: biochemical; settings: for IC50: ELISA, histone-coated plate, NAD+, 60 min at 25 °C; for Selectivity PARP2/PARP1: ratio of PARP2 IC50 to PARP1 IC50
Procedure: (§1) Experimental Objective: To evaluate the inhibitory effect of the compounds of the present invention on the enzyme activities of PARP1 and PARP2 using ELISA.
(§2) • 1. histone-coated 384-well plates was prepared: 25 µL of histone solution was added to each well and incubated overnight at 4 °C. • 2. PBST buffer, blocking buffer (PBS buffer with 5% BSA and 0.05% Tween-20 added) and detection buffer (20 mM HEPES pH 7.5 + 100 mM NaCl + 2 mM DTT + 0.002% Tween-20 + 0.1% BSA) were prepared. • 3. The histone-coated 3 84-well plate was washed three times with PBST buffer, blocked at room temperature with 50 µL blocking buffer for 1 hour, and then washed three times with PBST buffer. • 4. Test compounds were prepared as 2000-fold stock solutions in DMSO. 50 nL of the stock solution was mixed with 19.95 µL detection buffer, and 5 µL of the gradient-diluted test compound was transferred to each well. • 5. Enzymatic reaction (PARP1): PARP1 & DNA mix was pre-incubated at 25 °C for 10 minutes. 10 µL of the PARP1 & DNA mix was added to each well and incubated with the test compound at room temperature for 10 minutes. […] Finally, the 384-well plate was washed three times with PBST buffer. Enzymatic reaction (PARP2): PARP2 was pre-incubated at 25 °C for 10 minutes. 10 µL of PARP2 was added to each well and incubated with the test compound at room temperature for 10 minutes. […] Finally, the 384-well plate was washed three times with PBST buffer. • 6. Detection (PARP1): 20 µL of anti-Poly/Mono-ADP Ribose Rabbit mAb was added and incubated at room temperature for 1.5 hours, followed by three washes of the 384-well plate with PBST buffer. Then, 20 µL of diluted anti-rabbit IgG, HRP-linked Antibody (diluted 1:2000 in blocking buffer) was added and incubated at room temperature for 1 hour. After washing the plate three times with PBST buffer, 25 µL of a 1:1 mixture of Femto-ECL Substrate A and Femto-ECL Substrate B was added. Detection (PARP2): 25 µL of Strep-HRP was added and incubated at room temperature for 1 hour, followed by three washes of the 384-well plate with PBS buffer. Then, 25 µL of a 1:1 mixture of Femto-ECL Substrate A and Femto-ECL Substrate B was added. • 7. Chemiluminescence intensity was measured using an Envision multimode microplate reader. • 8. Data Processing
(§3) The inhibition rate was calculated in Excel using formula (1). inh% = (Max−Signal)/(Max−Min)*100 [formula]
(§4) The IC50 value was obtained by fitting the data in XL-Fit using formula (2). Y = bottom + (top−bottom)/(1+(IC50/X)*HillSlope); [formula] wherein Y is the inhibition percentage and X is the compound concentration.

PARP2 = PARP2 (Homo sapiens, UniProt Q9UGN5); assay: biochemical;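 also: PARP2 enzyme ELISA on histone-coated plates, Strep-HRP detection with chemiluminescence read-out, 10 min compound preincubation with enzyme, inhibition scaled between Max and Min signal controls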
Sequence of PARP2 (Q9UGN5 whole entry): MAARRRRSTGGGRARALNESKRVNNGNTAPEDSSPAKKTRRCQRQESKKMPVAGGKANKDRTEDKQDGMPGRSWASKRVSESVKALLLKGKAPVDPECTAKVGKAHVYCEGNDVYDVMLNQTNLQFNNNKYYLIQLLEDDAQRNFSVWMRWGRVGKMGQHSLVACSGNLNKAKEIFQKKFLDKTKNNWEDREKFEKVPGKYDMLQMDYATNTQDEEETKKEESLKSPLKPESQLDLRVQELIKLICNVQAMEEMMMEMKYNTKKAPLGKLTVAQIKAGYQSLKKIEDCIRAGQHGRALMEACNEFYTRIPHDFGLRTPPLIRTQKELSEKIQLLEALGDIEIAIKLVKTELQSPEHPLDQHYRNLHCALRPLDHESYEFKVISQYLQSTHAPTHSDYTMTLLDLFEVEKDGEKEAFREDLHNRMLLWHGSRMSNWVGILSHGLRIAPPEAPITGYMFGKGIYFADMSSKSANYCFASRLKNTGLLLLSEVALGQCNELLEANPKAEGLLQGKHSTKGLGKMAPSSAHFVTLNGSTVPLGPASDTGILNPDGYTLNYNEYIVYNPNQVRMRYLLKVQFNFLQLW
Procedure: as §1, §2, §3, §4

Sequence of PARP1 (P09874 whole entry): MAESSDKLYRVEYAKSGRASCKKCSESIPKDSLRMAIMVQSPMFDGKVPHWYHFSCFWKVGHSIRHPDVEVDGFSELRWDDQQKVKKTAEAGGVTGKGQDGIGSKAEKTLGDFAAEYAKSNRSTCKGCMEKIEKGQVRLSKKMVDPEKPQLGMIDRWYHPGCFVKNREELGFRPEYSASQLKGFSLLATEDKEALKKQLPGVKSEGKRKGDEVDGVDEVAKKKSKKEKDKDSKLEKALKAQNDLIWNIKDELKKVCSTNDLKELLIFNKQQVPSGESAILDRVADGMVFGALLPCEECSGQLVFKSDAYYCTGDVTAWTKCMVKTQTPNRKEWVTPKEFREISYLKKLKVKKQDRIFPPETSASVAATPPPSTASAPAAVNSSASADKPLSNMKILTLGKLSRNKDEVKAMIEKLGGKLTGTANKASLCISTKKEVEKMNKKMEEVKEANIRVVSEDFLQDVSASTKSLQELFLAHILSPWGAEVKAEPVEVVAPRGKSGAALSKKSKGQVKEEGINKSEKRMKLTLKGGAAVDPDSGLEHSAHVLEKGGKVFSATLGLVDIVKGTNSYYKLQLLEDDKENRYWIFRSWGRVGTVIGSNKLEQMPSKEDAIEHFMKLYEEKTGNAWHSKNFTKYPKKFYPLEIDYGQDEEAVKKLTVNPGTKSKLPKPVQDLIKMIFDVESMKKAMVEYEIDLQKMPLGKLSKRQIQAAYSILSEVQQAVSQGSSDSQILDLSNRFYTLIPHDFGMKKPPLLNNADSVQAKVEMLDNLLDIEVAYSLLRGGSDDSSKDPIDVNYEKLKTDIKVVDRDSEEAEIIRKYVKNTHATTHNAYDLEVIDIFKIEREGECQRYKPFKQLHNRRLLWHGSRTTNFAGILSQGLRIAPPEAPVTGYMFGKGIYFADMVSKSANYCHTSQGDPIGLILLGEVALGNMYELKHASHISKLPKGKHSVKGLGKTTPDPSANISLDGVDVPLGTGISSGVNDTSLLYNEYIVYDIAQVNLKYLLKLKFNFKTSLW

IC50 (DLD-1 BRCA2(-/-) cells) | IC50 (MDA-MB-436 cells) | IC50 (PARP1) | Selectivity PARP2/PARP1 (PARP1) | IC50 (PARP2) | SMILES
2.4 nM | 3.3 nM | 0.6 nM | 124.8 | 68.9 nM | C#Cc1cc(CN2CCN(c3ccc(C(=O)NC)nc3F)CC2)cc2[nH]c(=O)c(C)nc12 [Example 20, 5-(4-((8-ethynyl-2-methyl-3-oxo-3,4-dihydroquinoxalin-6-yl)methyl)piperazin-1-yl)-6-fluoro-N-methylpicolinamide]
22.2 nM | 22.9 nM | 6.7 nM | >1480 | > 10000 nM | CC#Cc1cc(CN2CCN(c3ccc(C(=O)NC)nc3F)CC2)c(F)c2[nH]c(=O)c(C)nc12 [Example 21, 6-fluoro-5-(4-((5-fluoro-2-methyl-3-oxo-8-(prop-1-yn-1-yl)-3,4-dihydroquinoxalin-6-yl)methyl)piperazin-1-yl)-N-methylpicolinamide]
68.8 nM | 40.1 nM | 2.8 nM | >833 | > 10000 nM | CNC(=O)c1ccc(N2CCN(Cc3cc(Oc4ccc(C#N)cc4)c4nc(C)c(=O)[nH]c4c3)CC2)c(F)n1 [Example 32, 5-(4-((8-(4-cyanophenoxy)-2-methyl-3-oxo-3,4-dihydroquinoxalin-6-yl)methyl)piperazin-1-yl)-6-fluoro-N-methylpicolinamide]
9.3 nM | 4.1 nM | 1.2 nM | 188.8 | 234 nM | CNC(=O)c1ccc(N2CCN(Cc3cc(Nc4ccc(F)cc4)c4nc(C)c(=O)[nH]c4c3)CC2)c(F)n1 [Example 33, 6-fluoro-5-(4-((8-((4-fluorophenyl)amino)-2-methyl-3-oxo-3,4-dihydroquinoxalin-6-yl)methyl)piperazin-1-yl)-N-methylpicolinamide]
7.7 nM | < 0.038 nM | 2.9 nM | 206.8 | 599 nM | CC#Cc1cc(CN2CC=C(c3ccc(C(=O)NC4CC4)nc3F)CC2)cc2[nH]c(=O)c(C)nc12 [Example 39, N-cyclopropyl-2-fluoro-1'-((2-methyl-3-oxo-8-(prop-1-yn-1-yl)-3,4-dihydroquinoxalin-6-yl)methyl)-1',2',3',6'-tetrahydro-[3,4'-bipyridine]-6-carboxamide]
27 nM | 8 nM | 1.5 nM | 398.1 | 583 nM | CC#Cc1cc(CN2CCN(c3ccc(C#N)cn3)CC2)cc2[nH]c(=O)c(C)nc12 [Example 43, 6-(4-((2-methyl-3-oxo-8-(prop-1-yn-1-yl)-3,4-dihydroquinoxalin-6-yl)methyl)piperazin-1-yl)nicotinonitrile]
12 nM | 11.1 nM | 7.7 nM | >1290.7 | > 10000 nM | CC#Cc1cc(CN2CCN(c3ccc(C(=O)NC)nc3C)CC2)c(F)c2[nH]c(=O)c(C)nc12 [Example 45, 5-(4-((5-fluoro-2-methyl-3-oxo-8-(prop-1-yn-1-yl)-3,4-dihydroquinoxalin-6-yl)methyl)piperazin-1-yl)-N,6-dimethylpicolinamide]
18.6 nM | 0.6 nM | 6.9 nM | >1456.3 | > 10000 nM | CC#Cc1cc(CN2CCN(c3ccc(C(=O)NC4CC4)nc3F)CC2)c(F)c2[nH]c(=O)c(C)nc12 [Example 47, N-cyclopropyl-6-fluoro-5-(4-((5-fluoro-2-methyl-3-oxo-8-(prop-1-yn-1-yl)-3,4-dihydroquinoxalin-6-yl)methyl)piperazin-1-yl)picolinamide]
12.9 nM | 9.1 nM | 3.2 nM | 17.0 | 54 nM | CNC(=O)c1ccc(N2CCN(Cc3cc(OC(F)F)c4nc(C)c(=O)[nH]c4c3)CC2)cn1 [Example 49, 5-(4-((8-(difluoromethoxy)-2-methyl-3-oxo-3,4-dihydroquinoxalin-6-yl)methyl)piperazin-1-yl)-N-methylpicolinamide]
18.4 nM | 28.7 nM | 7.6 nM | 26.7 | 203 nM | CNC(=O)c1ccc(N2CCN(Cc3cc(OC(F)F)c4nc(C5CC5)c(=O)[nH]c4c3)CC2)c(F)n1 [Example 54, 5-(4-((2-cyclopropyl-8-(difluoromethoxy)-3-oxo-3,4-dihydroquinoxalin-6-yl)methyl)piperazin-1-yl)-6-fluoro-N-methylpicolinamide]
3.9 nM | < 0.038 nM | 1.9 nM | 7.6 | 14.3 nM | CNC(=O)c1ccc(N2CCN(Cc3cc(OC(F)F)c4cc(C)c(=O)[nH]c4c3)CC2)c(F)n1 [Example 55, 5-(4-((5-(difluoromethoxy)-3-methyl-2-oxo-1,2-dihydroquinolin-7-yl)methyl)piperazin-1-yl)-6-fluoro-N-methylpicolinamide]
2.9 nM | 1.7 nM | 1.7 nM | 47.3 | 79.5 nM | Cc1nc2c(OC(F)F)cc(CN3CCN(c4ccc(C(=O)N[C@H]5C[C@H]5F)nc4F)CC3)cc2[nH]c1=O [Example 57, 5-(4-((8-(difluoromethoxy)-2-methyl-3-oxo-3,4-dihydroquinoxalin-6-yl)methyl)piperazin-1-yl)-6-fluoro-N-((1S,2R)-2-fluorocyclopropyl)picolinamide]
8 nM | 26.3 nM | 1.9 nM | 650.4 | 1220 nM | CNC(=O)c1ccc2c(n1)COC[C@H]1CN(Cc3cc(OC(F)F)c4nc(C)c(=O)[nH]c4c3)CCN21 [Example 59, (R)-3-((8-(difluoromethoxy)-2-methyl-3-oxo-3,4-dihydroquinoxalin-6-yl)methyl)-N-methyl-2,3,4,4a,5,7-hexahydro-1H-pyrazino[2,1-c]pyrido[3,2-e][1,4]oxazepine-9-carboxamide]
8.58 nM | 31.2 nM | 2.9 nM | 2030.7 | 5820 nM | CNC(=O)c1ccc(N2CCN(Cc3cc(OC(F)F)c4nc(C)c(=O)[nH]c4c3F)CC2)c(C)n1 [Example 60, 5-(4-((8-(difluoromethoxy)-5-fluoro-2-methyl-3-oxo-3,4-dihydroquinoxalin-6-yl)methyl)piperazin-1-yl)-N,6-dimethylpicolinamide]
16.1 nM | 6.2 nM | 3.2 nM | 398.8 | 1280 nM | CC#Cc1cc(CN2CCN3c4ccc(C(=O)NC)nc4COC[C@H]3C2)cc2[nH]c(=O)c(C)nc12 [Example 63, (R)-N-methyl-3-((2-methyl-3-oxo-8-(prop-1-yn-1-yl)-3,4-dihydroquinoxalin-6-yl)methyl)-2,3,4,4a,5,7-hexahydro-1H-pyrazino[2,1-c]pyrido[3,2-e][1,4]oxazepine-9-carboxamide]

SMILES | IC50 (DLD-1 BRCA2(-/-) cells) | IC50 (MDA-MB-436 cells) | IC50 (PARP1) | Selectivity PARP2/PARP1 (PARP1) | IC50 (PARP2)
CNC(=O)c1ccc(C2=CCN(Cc3cc(OC(F)F)c4nc(C)c(=O)[nH]c4c3)CC2)cn1 [Example 44, 1'-((8-(difluoromethoxy)-2-methyl-3-oxo-3,4-dihydroquinoxalin-6-yl)methyl)-N-methyl-1',2',3',6'-tetrahydro-[3,4'-bipyridine]-6-carboxamide] | 9.3 nM | 1.3 nM | 0.8 nM | 184.1 | 148 nM
CNC(=O)c1ccc(N2CCN(Cc3cc(OC4CCCC4)c4nc(C)c(=O)[nH]c4c3)CC2)c(F)n1 [Example 71, 5-(4-((8-(cyclopentoxy)-2-methyl-3-oxo-3,4-dihydroquinoxalin-6-yl)methyl)piperazin-1-yl)-6-fluoro-N-methylpyridine amide] | 12.3 nM | 9.3 nM | 1.5 nM | 873.7 | 1290 nM
